Experiments:
Type in all cases: ADME, organism-based
Conditions in all cases: rat, read-out: Hydrolysis
[1] = Compound was tested for percent hydrolysis in whole blood after a time interval of 0.5 min
[2] = Compound was tested for percent hydrolysis in whole blood after a time interval of 180.0 min
[3] = Compound was tested for percent hydrolysis in whole blood after a time interval of 2.0 min
[4] = Compound was tested for percent hydrolysis in whole blood after a time interval of 7.0 min
[5] = Compound was tested for percent hydrolysis in whole blood, after a time interval of 15.0 min
[6] = Compound was tested for percent hydrolysis in whole blood after a time interval of 60.0 min
[7] = Compound was tested for percent hydrolysis in whole blood after a time interval of 5.0 min

SMILES | metabolised at 0.5 min [1] [%] | metabolised at 3 h [2] [%] | metabolised at 2 min [3] [%] | metabolised at 7 min [4] [%] | metabolised at 0.25 h [5] [%] | metabolised at 1 h [6] [%] | metabolised at 5 min [7] [%]
O=C(CN1CCCCC1)OCN1C(=O)NC(c2ccccc2)(c2ccccc2)C1=O | 49.2 | – | 96.5 | – | – | – | 97.5
CC(OC(=O)CCC(=O)O)N1C(=O)NC(c2ccccc2)(c2ccccc2)C1=O (stereo unspecified) | 25.7 | 69.2 | 42.4 | 52.8 | 55.9 | 59.6 | –
O=C1NC(c2ccccc2)(c2ccccc2)C(=O)N1COP(=O)(O)O [FOSPHENYTOIN SODIUM] | 7.95 | 95.3 | 11.6 | 25 | 45.4 | 87.5 | –

Other lines, results leading:

metabolised at 0.5 min [1] [%] | metabolised at 3 h [2] [%] | metabolised at 2 min [3] [%] | metabolised at 7 min [4] [%] | metabolised at 0.25 h [5] [%] | metabolised at 1 h [6] [%] | metabolised at 5 min [7] [%] | SMILES
15 | 45.1 | 26.7 | 36.9 | 37.2 | 39.6 | – | CC(OC(=O)CCCC(=O)O)N1C(=O)NC(c2ccccc2)(c2ccccc2)C1=O (stereo unspecified)
28.7 | – | 80.1 | – | 93.6 | 99.3 | 91 | O=C(CN1CCOCC1)OCN1C(=O)NC(c2ccccc2)(c2ccccc2)C1=O

Source: ChEMBL document CHEMBL1131774, “Synthesis of water-soluble phenytoin prodrugs” (Bioorg Med Chem Lett, 1999)
